According to the SangsterLogP compilation:

Row | logP | Structure (SMILES)
1 | 1.58 | C[C@]12C=CC(=O)C=C1CC[C@@H]1[C@@H]2[C@@H](O)C[C@@]2(C)[C@H]1CC[C@]2(O)C(=O)CO
2 | 2.43 | CC(=O)OC1(C(=O)CO)CCC2C3CCC4=CC(=O)C=CC4(C)C3C(=O)CC21C (centres undefined)
3 | 1.51 | C[C@]12C=CC(=O)C=C1CC[C@H]1[C@@H]3CC[C@](O)(C(=O)CO)[C@@]3(C)C[C@H](O)[C@@]12F
4 | 3.62 | CCCCC(=O)OCC(=O)[C@@]1(O)CC[C@H]2[C@@H]3CCC4=CC(=O)CC[C@]4(C)[C@H]3[C@@H](O)C[C@@]21C
5 | 3.3 | CCC(=O)O[C@]1(C(=O)CCl)[C@@H](C)C[C@H]2[C@@H]3CCC4=CC(=O)C=C[C@]4(C)[C@H]3C(=O)C[C@@]21C
6 | 3.82 | CCCCC(=O)O[C@]1(C(=O)CO)CC[C@H]2[C@@H]3CCC4=CC(=O)C=C[C@]4(C)[C@H]3[C@@H](O)C[C@@]21C
7 | 2.7 | CCC(=O)O[C@]1(C(=O)CO)CC[C@H]2[C@@H]3CCC4=CC(=O)CC[C@]4(C)[C@H]3[C@@H](O)C[C@@]21C
8 | 3.79 | CCCCC(=O)O[C@]1(C(=O)CO)CC[C@H]2[C@@H]3CCC4=CC(=O)CC[C@]4(C)[C@H]3[C@@H](O)C[C@@]21C
9 | 2.45 | CC(=O)O[C@]1(C(=O)CO)CC[C@H]2[C@@H]3CCC4=CC(=O)CC[C@]4(C)[C@H]3C(=O)C[C@@]21C
10 | 3.34 | CCC(=O)O[C@]1(C(=O)CCl)[C@@H](C)C[C@H]2[C@@H]3CCC4=CC(=O)C=C[C@]4(C)[C@H]3[C@@H](O)C[C@@]21C
11 | 3.87 | CCCCC(=O)OCC(=O)[C@@]1(O)[C@@H](C)C[C@H]2[C@@H]3CCC4=CC(=O)C=C[C@]4(C)[C@@]3(F)[C@@H](O)C[C@@]21C
12 | 5.26 | CCCCC(=O)OCC(=O)[C@@]1(OC(=O)CCCC)[C@@H](C)C[C@H]2[C@@H]3CCC4=CC(=O)C=C[C@]4(C)[C@@]3(F)[C@@H](O)C[C@@]21C
13 | 2.91 | CCCC(=O)OCC(=O)[C@@]1(O)CCC2C3CCC4=CC(=O)CC[C@]4(C)C3C(O)C[C@@]21C (some centres undefined)
14 | 3.63 | CCCC(=O)O[C@]1(C(=O)CCl)[C@@H](C)C[C@H]2[C@@H]3CCC4=CC(=O)C=C[C@]4(C)[C@@]3(F)[C@@H](O)C[C@@]21C
15 | 3.18 | CCCC(=O)O[C@]1(C(=O)CO)CC[C@H]2[C@@H]3CCC4=CC(=O)CC[C@]4(C)[C@H]3[C@@H](O)C[C@@]21C
16 | 2.8 | CCC(=O)OCC(=O)[C@@]1(O)CC[C@H]2[C@@H]3CCC4=CC(=O)CC[C@]4(C)[C@H]3[C@@H](O)C[C@@]21C

Continued, compound first:

Row | Structure (SMILES) | logP
17 | C[C@H]1C[C@H]2[C@@H]3CCC4=CC(=O)C=C[C@]4(C)[C@@]3(F)[C@@H](O)C[C@]2(C)[C@@]1(O)C(=O)CCl | 2.48
18 | CC(=O)[C@@]1(O)[C@@H](C)C[C@H]2[C@@H]3CCC4=CC(=O)C=C[C@]4(C)[C@@]3(F)[C@@H](O)C[C@@]21C | 2.35
19 | CCC(=O)O[C@]1(C(=O)CCl)[C@@H](C)C[C@H]2[C@@H]3CCC4=CC(=O)C=C[C@]4(C)[C@@]3(F)[C@@H](O)C[C@@]21C | 3.18
20 | C[C@]12C[C@H](O)[C@H]3[C@@H](CCC4=CC(=O)CC[C@@]43C)[C@@H]1CC[C@@H]2C(=O)CO | 2.06
21 | CCC(=O)O[C@]1(C(=O)CCl)[C@@H](C)C[C@H]2[C@@H]3CCC4=CC(=O)C=C[C@]4(C)[C@@]3(F)C(=O)C[C@@]21C | 3.46
22 | CCC(=O)O[C@]1(C(C)=O)[C@@H](C)C[C@H]2[C@@H]3CCC4=CC(=O)C=C[C@]4(C)[C@@]3(F)C(=O)C[C@@]21C | 3.09
23 | CCC(=O)OCC(=O)[C@@]1(O)[C@@H](C)C[C@H]2[C@@H]3CCC4=CC(=O)C=C[C@]4(C)[C@@]3(F)[C@@H](O)C[C@@]21C | 3.06
24 | CC12CCC(=O)C=C1CCC1C3CCC(O)(C(=O)CO)C3(C)CC(=O)C12F (centres undefined) | 1.37
25 | CCCC(=O)O[C@]1(C(=O)CCl)[C@@H](C)C[C@H]2[C@@H]3CCC4=CC(=O)C=C[C@]4(C)[C@@]3(F)C(=O)C[C@@]21C | 3.76
26 | C[C@H]1C[C@H]2[C@@H]3CCC4=CC(=O)C=C[C@]4(C)[C@@]3(F)C(=O)C[C@]2(C)[C@@]1(O)C(=O)CCl | 2.61
27 | CCC(=O)O[C@]1(C(=O)CBr)[C@@H](C)C[C@H]2[C@@H]3CCC4=CC(=O)C=C[C@]4(C)[C@@]3(F)C(=O)C[C@@]21C | 3.55
28 | CCC(=O)O[C@]1(C(=O)CCl)[C@@H](C)C[C@H]2[C@@H]3CCC4=CC(=O)C=C[C@]4(C)[C@@]3(Cl)[C@@H](O)C[C@@]21C | 3.28
29 | CCCC(=O)OCC(=O)C1(O)C(C)CC2C3CCC4=CC(=O)C=CC4(C)C3(F)C(O)CC21C (centres undefined) | 3.55
